The values below come from patent publication EP0366638A2, “Neuromodulatory peptide” (KabiGen AB, priority 1988, dated 1990).

In one assay the test system is spinal cord. Kind of assay: electrophysiological reflex response in the spinal cord. It counts as in vivo. From the text:
The result of these experiments is shown in Fig. 3, from which it is clear that the tripeptide increases both the peak and the duration of the reflex response.

A further assay has as its system cortical brain slices. Kind of assay: release of acetylcholine from cortical brain slices. It counts as cell-based. Particulars: following depolarization, Fig. 1. An excerpt: The tripeptide resulting from the manufacture according to Example 1 above was used in a test system according to L. Nilsson, V.R. Sara and A. Nordberg, Neurosience Letters, 1988, Vol. 88, pp 221-226. This test procedure is based on stimulation of the release of acetylcholine from cortical brain slices.

For the next assay, the system named is cortical neurones. Kind of assay: modulation of the electrophysiological activity of cortical neurones (microiontophoresis and pressure ejection procedure). Particulars: Fig. 2. An excerpt:
The tripeptide from Example 1 above was used in modulation of the electrophysiological activity of cortical neurones, and the results of this experiment is illustrated in Fig. 2. […] In this experiment the procedure according to T.W. Stone (Ed.), "Microiontophonesis and pressure ejection", John Wiley & Sons, New York, 1985 was used.

For `NCC(=O)N1CCC[C@H]1C(=O)N[C@@H](CCC(=O)O)C(=O)O` [tripeptide, glycylprolylglutamic acid], in the assay with spinal cord (Fig. 3), the “duration of the reflex response” value is reported as “increases” and the “peak of the reflex response” value is on record as “increases”. In addition, the “electrophysiological reflex response in the spinal cord” value with spinal cord (in vivo) is listed as “facilitate”. Further, the “release of acetylcholine from neurones” value in the assay with cortical brain slices is reported as “inhance the release of acetylcholine”. Besides, the “neural response to neurotransmitters” value with cortical neurones (cortical neurones) is on record as “modulates”. In the assay on cortical neurones (electrophysiological activity), the cortical neurone activity result was “both stimulates and inhibits”.
